Structures can show the parent of a compound that is named as a salt.
How the values were obtained:
gastric lesions in rats = conditions: lesions induced by taurocholate acid, aspirin or indomethacin, J. Pharmacol. Exp. Ther. 1992, 263(1), 374-380; cited from earlier work
EP1 receptors [1] = target: T1, EP1 receptors (Homo sapiens, UniProt P34995); assay: human EP1 calcium mobilisation assay (CHO-K1 cells, FLIPR, PGE2); assay type: cell-based; set-up: expressed in transfected cells; host or cells: CHO-K1 cells, pCIN vector; conditions: free bases or sodium salts; averages of a number of experiments; read-out: functional pKi value, human EP1 calcium mobilisation assay (converted)
T1 sequence (P34995 1-402): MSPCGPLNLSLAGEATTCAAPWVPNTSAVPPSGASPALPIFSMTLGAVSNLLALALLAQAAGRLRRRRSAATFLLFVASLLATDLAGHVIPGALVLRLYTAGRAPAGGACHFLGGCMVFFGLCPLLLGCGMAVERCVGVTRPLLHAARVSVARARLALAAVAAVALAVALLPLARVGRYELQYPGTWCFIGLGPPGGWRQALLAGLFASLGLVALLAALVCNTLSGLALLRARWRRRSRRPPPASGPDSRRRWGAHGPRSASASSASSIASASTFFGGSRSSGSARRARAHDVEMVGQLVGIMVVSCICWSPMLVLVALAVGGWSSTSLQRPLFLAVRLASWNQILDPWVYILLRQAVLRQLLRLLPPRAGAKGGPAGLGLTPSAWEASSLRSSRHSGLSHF
Procedure, shortened: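 CHO-K1 cells stably transfected with human EP1 cDNA, loaded with Fluo-4 AM after 24 h culture at 37° C. Compounds added first, then PGE2; antagonism read as inhibition of PGE2-induced intracellular calcium rise on FLIPR. pIC50 taken as concentration giving half-maximal inhibition, from curve fitting.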

EP1 receptors [2] = target: T1, EP1 receptors; assay: Binding assay for the human prostanoid EP1 receptor (competition with [3H]-PGE2); set-up: expressed in transfected cells; host or cells: CHO-K1 cells, membrane fraction; conditions: [3H]-PGE2 competition; averages of a number of experiments; read-out: pIC50 value, binding assay for the human prostanoid EP1 receptor (converted)
Procedure, shortened: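 Membranes from CHO-K1 cells stably expressing human EP1 incubated with compounds and [3H]-PGE2 (3 nM final) for 30 min at 30° C in MES buffer with EDTA and MgCl2, pH 6. Bound radioactivity measured after filtration; IC50 from nonlinear fit of specific binding inhibition.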

[3] = tested on: rat model of chronic constriction injury; conditions: Anesthesia and Analgesia 2001, 93, 1012-7; cited from earlier work
[4] = tested on: rodent model of post-operative pain; conditions: Anesthesia and Analgesia 2001, 92, 233-238; cited from earlier work

| SMILES | Ki (EP1 receptors [1]) [nM] | IC50 (EP1 receptors [2]) [nM] | gastric lesions (gastric lesions in rats) | hyperalgesia and allodynia [3] | mechanical hyperalgesia [4] |
| --- | --- | --- | --- | --- | --- |
| O=C(O)Cc1ccc(CCNS(=O)(=O)c2ccc(Cl)cc2)cc1 [BM 13505] |  |  | inhibit gastric lesions |  |  |
| CC(C)COc1ccc(Cl)cc1Cc1nc(-c2nc3ccc(CCN(C)C)cc3[nH]2)co1 [Example 166, (2-{2-[2-({5-Chloro-2-[(2-methylpropyl)oxy]phenyl}methyl)-1,3-oxazol-4-yl]-1H-benzimidazol-5-yl}ethyl)dimethylamine hydrochloride] | < 1000 | ≤ 31.6 |  |  |  |
| CC(C)COc1ccc(Cl)cc1Cc1nc(-c2nc3ccc(CCN4CCN(C)CC4)cc3[nH]2)co1 [Example 167, 2-[2-({5-chloro-2-[(2-methylpropyl)oxy]phenyl}methyl)-1,3-oxazol-4-yl]-5-[2-(4-methyl-1-piperazinyl)ethyl]-1H-benzimidazolehydrochloride] | < 1000 | ≤ 31.6 |  |  |  |
| CC(C)COc1ccc(Cl)cc1Cc1nc(-c2nc3ccc(CCN4CCCCC4)cc3[nH]2)co1 [Example 168, 2-[2-({5-chloro-2-[(2-methylpropyl)oxy]phenyl}methyl)-1,3-oxazol-4-yl]-5-[2-(1-piperidinyl)ethyl]-1H-benzimidazolehydrochloride] | < 1000 | ≤ 31.6 |  |  |  |
| CC(C)COc1ccc(Cl)cc1Cc1nc(-c2nc3ccc(CCN4CCCC4)cc3[nH]2)co1 [Example 169, 2-[2-({5-chloro-2-[(2-methylpropyl)oxy]phenyl}methyl)-1,3-oxazol-4-yl]-5-[2-(1-pyrrolidinyl)ethyl]-1H-benzimidazolehydrochloride] | < 1000 | ≤ 31.6 |  |  |  |
| CN(C)Cc1ccc2nc(-c3coc(Cc4cc(Cl)ccc4OCc4ccccc4)n3)[nH]c2c1 [Example 170, ({2-[2-({5-chloro-2-[(phenylmethyl)oxy]phenyl}-methyl)-1,3-oxazol-4-yl]-1H-benzimidazol-5-yl}methyl)dimethylaminehydrochloride] | < 1000 | ≤ 1000 |  |  |  |
| CN1CCN(Cc2ccc3nc(-c4coc(Cc5cc(Cl)ccc5OCc5ccccc5)n4)[nH]c3c2)CC1 [Example 171, 2-[2-({5-chloro-2-[(phenylmethyl)oxy]phenyl}-methyl)-1,3-oxazol-4-yl]-5-[(4-methyl-1-piperazinyl)methyl]-1H-benzimidazolehydrochloride] | < 1000 | ≤ 1000 |  |  |  |
| Clc1ccc(OCc2ccccc2)c(Cc2nc(-c3nc4ccc(CN5CCCCC5)cc4[nH]3)co2)c1 [Example 172, 2-[2-({5-chloro-2-[(phenylmethyl)oxy]phenyl}-methyl)-1,3-oxazol-4-yl]-5-(1-piperidinylmethyl)-1H-benzimidazolehydrochloride] | < 1000 | ≤ 1000 |  |  |  |
| Clc1ccc(OCc2ccccc2)c(Cc2nc(-c3nc4ccc(CN5CCCC5)cc4[nH]3)co2)c1 [Example 173, 2-[2-({5-chloro-2-[(phenylmethyl)oxy]phenyl}-methyl)-1,3-oxazol-4-yl]-5-(1-pyrrolidinylmethyl)-1H-benzimidazolehydrochloride] | < 1000 | ≤ 1000 |  |  |  |
| CNCc1ccc2nc(-c3coc(Cc4cc(Cl)ccc4OCC(C)C)n3)[nH]c2c1 [Example 174, ({2-[2-({5-Chloro-2-[(2-methylpropyl)oxy]phenyl}methyl)-1,3-oxazol-4-yl]-1H-benzimidazol-5-yl}methyl)methylaminedihydrochloride] | < 1000 | ≤ 31.6 |  |  |  |
| CC(C)COc1ccc(Cl)cc1Cc1nc(-c2nc3ccc(CN(C)C)cc3[nH]2)co1 [Example 175, ({2-[2-({5-Chloro-2-[(2-methylpropyl)oxy]phenyl}methyl)-1,3-oxazol-4-yl]-1H-benzimidazol-5-yl}methyl)dimethylaminedihydrochloride] | < 1000 | ≤ 31.6 |  |  |  |
| Cc1cc(Cl)ccc1S(=O)(=O)NC[C@H]1C2CCC(CC2)[C@@H]1/C=C\CCCC(=O)O [ONO-8711] |  |  |  | reduces hyperalgesia and allodynia | inhibits mechanical hyperalgesia |
| O=C(O)CCc1ccccc1CC1C2CCC(O2)C1c1nc(C(=O)NCCCCC2CCCCC2)co1 (stereo not shown) [SQ 33961] |  |  | inhibit gastric lesions |  |  |

Second part, led by results:

| Ki (EP1 receptors [1]) [nM] | IC50 (EP1 receptors [2]) [nM] | SMILES | gastric lesions (gastric lesions in rats) | hyperalgesia and allodynia [3] | mechanical hyperalgesia [4] |
| --- | --- | --- | --- | --- | --- |
| < 1000 | ≤ 31.6 | CC(C)COc1ccc(Cl)cc1Cc1nc(-c2nc3ccc(CN4CCCC4)cc3[nH]2)co1 [Example 176, 2-[2-({5-chloro-2-[(2-methylpropyl)oxy]phenyl}methyl)-1,3-oxazol-4-yl]-5-(1-pyrrolidinylmethyl)-1H-benzimidazoledihydrochloride] |  |  |  |
| < 1000 | ≤ 31.6 | CC(C)COc1ccc(Cl)cc1Cc1nc(-c2nc3ccc(CN4CCCCC4)cc3[nH]2)co1 [Example 177, 2-[2-({5-chloro-2-[(2-methylpropyl)oxy]phenyl}methyl)-1,3-oxazol-4-yl]-5-(1-piperidinylmethyl)-1H-benzimidazoledihydrochloride] |  |  |  |
| < 1000 | ≤ 31.6 | CC(C)COc1ccc(Cl)cc1Cc1nc(-c2nc3ccc(CN4CCN(C)CC4)cc3[nH]2)co1 [Example 178, 2-[2-({5-Chloro-2-[(2-methylpropyl)oxy]phenyl}methyl)-1,3-oxazol-4-yl]-5-[(4-methyl-1-piperazinyl)methyl]-1H-benzimidazoletrihydrochloride] |  |  |  |
| > 1000 | ≤ 31.6 | CNCc1ccc2nc(-c3csc(Nc4cc(Cl)ccc4OCC(C)C)n3)[nH]c2c1 [Example 179, N-{5-Chloro-2-[2-methylpropyl)oxy]phenyl}-4-{5-[(methylamino)methyl]-1H-benzimidazol-2-yl}-1,3-thiazol-2-amine hydrochloride] |  |  |  |
| > 1000 | ≤ 31.6 | CC(C)COc1ccc(Cl)cc1Nc1nc(-c2nc3ccc(CN(C)C)cc3[nH]2)cs1 [Example 180, N-{5-Chloro-2-[(2-methylpropyl)oxy]phenyl}-4-{5-[(dimethylamino)methyl]-1H-benzimidazol-2-yl}-1,3-thiazol-2-aminehydrochloride] |  |  |  |
| > 1000 | ≤ 1000 | CC(C)COc1ccc(Cl)cc1Nc1nc(-c2nc3ccc(CN4CCCC4)cc3[nH]2)cs1 [Example 181, N-{5-Chloro-2-[(2-methylpropyl)oxy]phenyl)-4-[5-(1-pyrrolidinylmethyl)-1H-benzimidazol-2-yl]-1,3-thiazol-2-amine] |  |  |  |
| > 1000 | ≤ 1000 | CC(C)COc1ccc(Cl)cc1Nc1nc(-c2nc3ccc(CN4CCCCC4)cc3[nH]2)cs1 [Example 182, N-{5-Chloro-2-[(2-methylpropyl)oxy]phenyl}-4-[5-(1-piperidinylmethyl)-1H-benzimidazol-2-yl]-1,3-thiazol-2-amine] |  |  |  |
| < 1000 | ≤ 31.6 | CC(C)COc1ccc(Cl)cc1Nc1nc(-c2nc3ccc(CN4CCN(C)CC4)cc3[nH]2)cs1 [Example 183, N-{5-Chloro-2-[(2-methylpropyl)oxy]phenyl}-4-{5-[(4-methyl-1-piperazinyl)methyl]-1H-benzimidazol-2-yl}-1,3-thiazol-2-amine] |  |  |  |

From US20080207708A1, “Oxazole and Thiazole Compounds and Their Use in the Treatment of Pge2 Mediated Disorders” (GLAXO GROUP LIMITED, priority 2005, published 2008)
